The source of these data is paper PMC11124387, “A Reliable Multifaceted Solution against Foodborne Viral Infections: The Case of RiLK1 Decapeptide” (Molecules, 2024).

Data set [1] concerns Campylobacter jejuni. Format: cell-based. The following applies: peptide 40 and 80 µM, 6 h at 37 °C. An excerpt:
(§1) The monophasic variant of Salmonella Typhimurium, Salmonella Napoli, and Campylobacter jejuni were isolated by the Laboratory of Microbiological Food Control—Department of Food Microbiology of the Istituto Zooprofilattico Sperimentale del Mezzogiorno in Portici (Naples, Italy) in raw and processed foodstuffs of animal origin. Specifically, the monophasic variant of S. Typhimurium and S. Napoli were isolated from bivalve mollusks, while C. jejuni was isolated from poultry meat. Bacterial cells were cultured at 37 °C in the appropriate culture media (S. Typhimurium and S. Napoli in buffered peptone water (Thermo Fisher, Milan, Italy) and C. jejuni in Bolton Broth (Oxoid, Madrid, Spain)) until collection and then diluted in fresh broth to a final concentration of 1.5 × 10^3 colony forming units (CFUs)/mL. Thereafter, peptide stock solutions in DMSO were added to the bacterial suspension at the same concentrations used in the virucidal assays (40 and 80 µM) and incubated at 37 °C for 6 h. Samples containing only cell suspension and DMSO were used as controls. […]

The conditions of data set [2]: pH 2; cited from earlier work. Here is the method:
In this context, to acquire important information on how the conformational properties of peptides might influence the structure–function relationships and their distinct membrane interaction profiles, the propensity of the new peptides, RiLK30 and AVP2, to adopt a defined secondary structure and to undergo conformational changes were examined by circular dichroism and fluorescence spectroscopy. These analyses were performed in the presence of a negatively charged SDS that is commonly used as a biomimetic membrane model to study the structural features of membranotropic molecules. In previous ...

The test system of data set [3] is Murine norovirus strain 1 (MNV-1). Format: cell-based. The following applies: for Viral Titre after Treatment: titration on RAW 264.7 cells; for Viral Titre after Treatment / LRV (log reduction value): mean ± SD, triplicate. An excerpt:
(§2) Murine norovirus strain 1 (MNV-1) was used as a surrogate for human norovirus (NoV). The virus was replicated in RAW 264.7 cells (murine macrophage cell line) cultured in Dulbecco’s modified Eagle’s medium (DMEM) supplemented with 1% glutamine, 1% non-essential amino acids, and 2% fetal bovine serum (FBS). Hepatitis A virus (HAV) strain HM-175 was replicated in Frp3 cells (non-human primate cell line derived from fetal kidney) cultured in minimum essential medium (MEM) with Earle’s salts supplemented with 1% glutamine, 2% non-essential amino acids, and 2% FBS. Both viruses were incubated in 5% CO2 at 37 °C. All cell culture media were provided by EuroClone (Milan, Italy). The viral suspensions were prepared by freeze and thaw lysis (1 cycle for MNV-1 and 3 cycles for HAV) of infected monolayers, clarified using low-speed centrifugation (800× g) to remove residual cell debris, then divided in aliquots, and stored at −80 °C until use.
(§3) Solutions 40 µM and 80 µM of each peptide of the panel (RiLK1, RiLK3, RiLK30, 1018-K6, MTP1, and AVP2) were chosen for the virucidal tests. HAV and MNV-1 were assayed at a concentration of 4.7 ± 0.2 log TCID50/mL and 4.5 ± 0.2 log TCID50/mL, respectively. The suspensions containing the peptides and viruses were incubated for 1 h at room temperature (RT,20 ± 2 °C) and 4 °C. These temperatures were chosen to simulate the use of sanitizing solutions in food production/processing environments. Residual viral infectivity was evaluated by titration (TCID50/mL) on Frp3 cells for HAV and on RAW 264.7 cells for MNV-1. Untreated HAV and MNV-1 suspensions and 40 µM and 80 µM AMP solutions, incubated at the same conditions, were used as controls. Each treatment condition was assayed in triplicate. For titration, 100 µL of serial tenfold dilutions of each sample were assayed in 24-well tissue culture plates containing 24–48 h cell monolayers and incubated for 1 h in 5% CO2 at 37 °C. After that, the wells were washed twice with 200 µL of PBS, and 500 µL of DMEM/MEM, supplemented with 2% of FBS, were was added to each well; MNV-1 and HAV incubations were carried for up to 6 days and 14 days, respectively, in 5% CO2 at 37 °C with daily visual inspection to determine the cytopathic effect. The virucidal efficacy of AMPs was estimated by comparing the titers of treated and untreated viral suspensions.
(§4) For each treatment, the average and standard deviation of the triplicate analyses were calculated. The virucidal effects of AMPs was assessed by calculating the log reduction value (LRV), i.e., the difference between the infectious titer (log-transformed) of untreated versus treated samples. The statistical significance of differences between treated and untreated samples was determined through one-way analysis of variance (ANOVA) with Bonferroni post hoc comparisons, with a significance level of p < 0.05 (GraphPad Prism v9.5.0, software San Diego, CA, USA).

The test system of data set [4] is Hepatitis A virus (HAV) strain HM-175. Nature of the data set: Virucidal effect of peptides on HAV (residual infectivity by TCID50 titration on Frp3 cells). The class given is cell-based. Particulars: for Viral Titre after Treatment: titration on Frp3 cells; for Viral Titre after Treatment / LRV (log reduction value): mean ± SD, triplicate.
From the text: as §2, §3, §4

Data set [5] concerns Salmonella Napoli. Nature of the data set: Antibacterial assay, Salmonella Napoli. The following applies: even at the highest concentration tested (80 µM), 6 h at 37 °C. Format: cell-based.
From the text: as §1

[6] abbreviates: MNV-1 + peptide 40 µM, 1 h at 4 °C.
The mark [7] stands for this setting: MNV-1 + peptide 40 µM, 1 h at RT (20 ± 2 °C).
Where [8] appears, read: MNV-1 + peptide 80 µM, 1 h at RT (20 ± 2 °C).
Setting [9] is: HAV + peptide 40 µM, 1 h at RT (20 ± 2 °C).
[10] abbreviates: HAV + peptide 80 µM, 1 h at RT (20 ± 2 °C).

Like-named read-outs stand apart in the source and are kept apart here.

Regarding “KVSGVLFGTGLWVAL-NH2 [MTP1, previously designed 15-residue antimicrobial peptide, C-terminally amidated]”, the “inhibitory activity against Campylobacter jejuni (in words)” value in data set [1] is “did not display any inhibitory activity”. The structural stability entry in data set [2] is listed as “high structural stability”. Further, in data set [3] (40 and 80 µM, 4 °C and RT), the “virucidal activity toward MNV-1 (in words)” value is “no significant effects”. Besides, the “Viral Titre after Treatment” value was determined as 4.5 ± 0.1 logTCID50/mL in data set [3] (MNV-1 4.5 ± 0.2 log TCID50/mL + peptide 80 µM, 1 h at 4 °C); 4.4 ± 0.1 logTCID50/mL in data set [3] (setting [6]); 4.5 ± 0.2 logTCID50/mL in data set [3] (setting [7]); 4.5 ± 0.2 logTCID50/mL in data set [3] (setting [8]); 3.8 ± 0.2 logTCID50/mL in data set [4] (HAV 4.7 ± 0.2 log TCID50/mL + peptide 80 µM, 1 h at 4 °C); 3.6 ± 0.3 logTCID50/mL in data set [4] (HAV + peptide 40 µM, 1 h at 4 °C). Moreover, the “Viral Titre after Treatment” value came to 3.2 ± 0.2 logTCID50/mL in data set [4] (setting [9]) and 3.5 ± 0.1 logTCID50/mL in data set [4] (setting [10]). In addition, the “LRV (log reduction value)” value in data set [3] (setting [6]) is reported as 0.1 ± 0.3 logTCID50/mL; in data set [3] (setting [7]), 0 ± 0.4 logTCID50/mL; in data set [3] (MNV-1 + peptide 80 µM, 1 h at 4 °C), 0 ± 0.3 logTCID50/mL; in data set [3] (setting [8]), 0 ± 0.4 logTCID50/mL; in data set [4] (HAV + peptide 40 µM, 1 h at 4 °C, untreated minus treated titre) it was 1.1 ± 0.2 logTCID50/mL; in data set [4] (setting [9]), 1.5 ± 0.4 logTCID50/mL. Also, the “LRV (log reduction value)” value in data set [4] (HAV + peptide 80 µM, 1 h at 4 °C, untreated minus treated titre) came to 0.9 ± 0.4 logTCID50/mL; in data set [4] (setting [10]), 1.2 ± 0.3 logTCID50/mL. Further, the “decrease of HAV infectious titer” value in data set [4] (maximum reduction, corresponding to the highest LRV) is listed as “up to 97.3%”. In addition, the “bactericidal activity (growth inhibition on selective plates)” value in data set [5] is “no detectable killing effects”.
